Source: patent US9783545B2, “Pyrazolopyridazines and methods for treating retinal-degenerative diseases and hearing loss associated with usher syndrome” (Usher III Initiative, Inc., priority 2012, dated 2017)
pEC50, pIC50: −log10 of the molar value.

Biological target: T1, N48K Clarin-1 (Homo sapiens, UniProt P58418, N48K)
T1 construct: expressed in transfected cells
T1 sequence (P58418 1-232 N48K): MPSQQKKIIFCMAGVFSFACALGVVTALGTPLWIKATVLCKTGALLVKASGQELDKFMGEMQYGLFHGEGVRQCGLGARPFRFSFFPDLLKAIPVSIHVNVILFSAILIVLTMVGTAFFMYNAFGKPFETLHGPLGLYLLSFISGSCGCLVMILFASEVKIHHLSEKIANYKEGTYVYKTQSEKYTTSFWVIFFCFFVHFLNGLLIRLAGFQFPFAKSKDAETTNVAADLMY
Experiment: Restoration of expression of N48K Clarin-1, 2 hour incubation then 22 hr fresh medium (high content imaging of HA-tagged N48K Clarin-1)
Assay type: cell-based
Conditions: HEK293-Clarin-1 N48K-HA D9 cell line, 2 hr incubation with compound, then 22 hr in fresh medium
Protocol: An Assay Method Showing Activity of Compounds of the Invention that Restore Expression of N48K Clarin-1(2 hour incubation)
(§1) Clarin-1 is the protein encoded by the gene mutated in Usher III Syndrome (Adato et al., 2002). The most prevalent mutation in Clarin-1 in North America is N48K, which is reported to cause loss of glycosylation and a trafficking defect (Tian et al., 2009). […] Thus it is believed that restoring the trafficking of N48K Clarin-1 to the cell surface provides an avenue of intervention for Usher III Sydrome.
(§2) In a typical experiment, these cells were seeded on collagen-coated 96-well plates at a cell density of 20,000 cells per well in Dulbecco's Modified Eagle Medium (DMEM) contain 10% fetal bovine serum in a humidified incubator at 37° C., 5% CO2. After an overnight incubation, compounds were added for a 2 hr incubation in DMEM medium contain 10% fetal bovine serum in a humidified incubator at 37° C., 5% CO2. As a negative control, DMSO was used at 0.25% final concentrations. Compounds were typically tested in triplicate fashion. After the 2 hr incubation with compounds, the cells were incubated in fresh medium for 22 hr. The cells were then fixed by the addition of 10% buffered formalin to the wells to achieve a final concentration of 4% formalin. After a 20 min fixation at room temperature, wells were washed three times with phosphate-buffered saline (PBS) containing Triton X-100 (0.02 phosphate, 150 mM NaCl, 0.1% Triton X-100).
(§3) The HA-tagged N48K Clarin-1 was detected with an antibody against the HA tag (HA.11 Clone 16B12 Monoclonal antibody, Covance #MMS-101P) at a dilution of 1:1000 in PBS containing Triton X-100. After a 90 min incubation, wells were washed three times with PBS containing Triton X-100, and a secondary antibody (Goat anti-mouse IgG-Cy3 (1.5 mg/ml), Jackson IR Europe #115165003) was added to the wells at a dilution of 1:250 in PBS containing Triton X-100 for 45 min. Wells were subsequently washed three times with PBS containing Triton X-100, and a final staining for nuclei was performed by the addition of DAPI (4′,6-diamidino-2-phenylindole) at a dilution of 1:10,000. The imaging of the stained cells was performed on an InCell 1000 High Content Imager (GE Healthcare), reading out the Cy3 channel for N48K Clarin-1 and the DAPI channel for nuclei. The images are analyzed and quantitated using a specific algorithm. This algorithm measured the HA-Clarin-1 staining for each cell based on the additional nuclear segmentation of the DAPI signal (FIG. 1). This algorithm measured the intensity per cell, and thus it is less sensitive for variation in cell number. Per well, approximately 2,000 cells were measured to achieve an average density per cell measurement.

Compound | pIC50
Cc1ccc(-c2nn(CCN3CCN(C)CC3)c3nnc(-c4ccccc4)c(Cl)c23)o1 [Io, 4-chloro-3-(5-methyl-2-furyl)-1-[2-(4-methylpiperazin-1-yl)ethyl]-5-phenyl-pyrazolo[3,4-c]pyridazine] | ≥ 5.40
CN1CCN(CCn2nc(N3CCCC3)c3c(Cl)c(-c4ccccc4)nnc32)CC1 [Iz, 4-chloro-1-[2-(4-methylpiperazin-1-yl)ethyl]-5-phenyl-3-pyrrolidin-1-yl-pyrazolo[3,4-c]pyridazine] | ≥ 5.40
FC1(F)CN(CCn2nc(-c3ccccc3)c3c(Cl)c(-c4ccccc4)nnc32)C1 [IIw, 4-chloro-1-[2-(3,3-dilluoroazetidin-1-yl)ethyl]-3,5-diphenyl-pyrazolo[3,4-c]pyridazine] | 5.10 to 5.40
FC1(F)CCN(CCn2nc(-c3ccccc3)c3c(Cl)c(-c4ccccc4)nnc32)C1 [IIv, 4-chloro-1-[2-(3,3-difluoropyrrolidin-1-yl)ethyl]-3,5-diphenyl-pyrazolo[3,4-c]pyridazine] | 5.10 to 5.40
Fc1ccc(-c2nn(CCN3CC[C@@H](F)C3)c3nnc(-c4ccccc4)c(Cl)c23)cc1 [IIy, 4-chloro-3-(4-fluorophenyl)-1-[2-[(3R)-3-fluoropyrrolidin-1-yl]ethyl]-5 phenyl-pyrazolo[3,4-c]pyridazine] | ≥ 5.40
Cc1nn([C@@H]2C[C@H]3CC[C@@H](C2)N3)c2nnc(-c3ccccc3)c(Cl)c12 [XIIIa] | 5.10 to 5.40
F[C@@H]1CCN(CCn2nc(-c3ccccc3)c3c(Cl)c(-c4ccccc4)nnc32)C1 [IIu, 4-chloro-1-[2-1[(3R)-3-fluoropyrrolidin-1-yl]ethyl]-3,5-diphenyl-pyrazolo[3,4-c]pyridazine] | ≥ 5.40
Clc1c(-c2ccccc2)nnc2c1c(C1=CCOCC1)nn2CCN1CCCC1 [Is, 4-chloro-3-(3,6-dihydro-2H-pyran-4-yl)-5-phenyl-1-(2-pyrrolidin-1-ylethyl)pyrazolo[3,4-c]pyridazine] | ≥ 5.40
Cc1nn(CCN2CCCC2)c2nnc(-c3ccccc3)c(Cl)c12 [XIIId, 4-chloro-3-methyl-5-phenyl-1-(2-pyrrolidin-1-ylethyl)pyrazolo[3,4-c]pyridazine] | 5.10 to 5.40
Cn1nc(-c2ccccc2)c2c(Cl)c(C3=CCCC3)nnc21 [IIIb, 4-chloro-5-(cyclopenten-1-yl)-1-methyl-3-phenyl-pyrazolo[3,4-c]pyridazine] | 5.10 to 5.40
O=C(Cn1nc(I)c2c(Cl)c(-c3ccccc3)nnc21)N1CC[C@@H](F)C1 [It, 2-(4-chloro-3-iodo-5-phenyl-pyrazolo[3,4-c]pyridazin-1-yl)-1-[(3R)-3-fluoropyrrolidin-1-yl]ethanone] | 5.10 to 5.40
Clc1c(-c2ccccc2)nnc2c1c(I)nn2CCN1CCCC1 [Ir, 4-chloro-3-iodo-5-phenyl-1-(2-pyrrolidin-1-ylethyl)pyrazolo[3,4-c]pyridazine] | ≥ 5.40
Cn1nc(-c2ccccc2)c2c(Cl)c(I)nnc21 [IIIa, 4-chloro-5-iodo-1-methyl-3-phenyl-pyrazolo[3,4-c]pyridazine] | 5.10 to 5.40
Cn1cncc1Cn1nc(-c2cccn2C)c2c(Cl)c(-c3ccccc3)nnc21 [XIIIb, 4-chloro-1-[(3-methylimidazol-4-yl)methyl]-3-(1-methylpyrrol-2-yl)-5-phenyl-pyrazolo[3,4-c]pyridazine] | 5.10 to 5.40

Second part, the molecule after the results:

pIC50 | Compound
≥ 5.40 | Clc1c(-c2ccccc2)nnc2c1c(-c1ccccc1)nn2CCn1cccn1 [XIVa, 4-chloro-3,5-diphenyl-1-(2-pyrazol-1-ylethyl)pyrazolo[3,4-c]pyridazine]
5.10 to 5.40 | F[C@@H]1CCN(CCn2nc(C3=CCOCC3)c3c(Cl)c(-c4ccccc4)nnc32)C1 [Iq, 4-chloro-3-(3,6-dihydro-2H-pyran-4-yl)-1-[2-[(3R)-3-fluoropyrrolidin-1-yl]ethyl]-5-phenyl-pyrazolo[3,4-c]pyridazine]
≥ 5.40 | CN1CCN(CCn2nc(-c3ccccn3)c3c(Cl)c(-c4ccccc4)nnc32)CC1 [Iy, 4-chloro-1-[2-(4-methylpiperazin-1-yl)ethyl]-5-phenyl-3-(2-pyridyl)pyrazolo[3,4-c]pyridazine]
5.10 to 5.40 | F[C@@H]1CCN(CCn2nc(I)c3c(Cl)c(-c4ccccc4)nnc32)C1 [Ip, 4-chloro-1-[2-[(3R)-3-fluoropyrrolidin-1-yl]ethyl]-3-iodo-5-phenyl-pyrazolo[3,4-c]pyridazine]
≥ 5.40 | Cc1ccc(-c2nn(CCN3CCN(C)CC3)c3nnc(-c4ccccc4)c(Cl)c23)s1 [Icc, 4-chloro-1-[2-(4-methylpiperazin-1-yl)ethyl]-3-(5-methyl-2-thienyl)-5-phenyl-pyrazolo[3,4-c]pyridazine]
4.92 to 5.10 | CS(=O)(=O)CCn1nc(C2CC2)c2c(Cl)c(-c3ccccc3)nnc21 [Ix, 4-chloro-3-cyclopropyl-1-(2-methylsulfonylethyl)-5-phenyl-pyrazolo[3,4-c]pyridazine]
≥ 5.40 | F[C@H]1CCN(CCn2nc(-c3ccccc3)c3c(Cl)c(-c4ccccc4)nnc32)C1 [IIt, 4-chloro-1-[2-[(3S)-3-fluoropyrrolidin-1-yl]ethyl]-3,5-diphenyl-pyrazolo[3,4-c]pyridazine]
≥ 5.40 | Fc1cccc(-c2nn(CCN3CC[C@@H](F)C3)c3nnc(-c4ccccc4)c(Cl)c23)c1 [IIx, 4-chloro-3-(3-fluorophenyl)-1-[2-[(3R)-3-fluoropyrrolidin-1-yl]ethyl]-5-phenyl-pyrazolo[3,4-c]pyridazine]

Biological target: T1, N48K Clarin-1
Experiment: Restoration of expression of N48K Clarin-1, 24 hour incubation (high content imaging of HA-tagged N48K Clarin-1)
Assay type: cell-based
Conditions: HEK293-Clarin-1 N48K-HA D9 cell line, 24 hr incubation with compound; read-out: IC50 (the source's name)
Protocol: Assay Method Showing Activity of Compounds of the Invention that Restore Expression of N48K Clarin-1 (24 hour incubation)
as §1
as §2, with “for a 24 hr incubation” for “for a 2 hr incubation”, “After the 24 hr incubation” for “After the 2 hr incubation”, “cells were fixed by” for “cells were incubated in fresh medium for 22 hr. The cells were then fixed by”
as §3, with “images were” for “images are”, “measurement. FIG. 1 illustrates high content analysis. DAPI-stained nuclei are used to perform segmentation of the image into individual cells. The density observed in the N48K Clarin-1 channel (Cy3) is then calculated per cell averaged over a field.” for “measurement.”

pEC50 | Compound
5.30 to 5.70 | Cc1nn(C)c2nnc(-c3ccccc3)c(Br)c12 [Compound 23, 4-bromo-1,3-dimethyl-5-phenyl-pyrazolo[3,4-c]pyridazine]
≥ 5.70 | Cn1nc(-c2ccccc2)c2c(Cl)c(-c3ccsc3)nnc21 [IIIc, 4-chloro-1-methyl-3-phenyl-5-(3-thienyl)pyrazolo[3,4-c]pyridazine]
≥ 5.70 | CN1CCN(CCn2nc(-c3ccnc(C(F)(F)F)c3)c3c(Cl)c(-c4ccccc4)nnc32)CC1 [Ie, 4-chloro-1-(2-(4-methylpiperazin-1-yl)ethyl)-5-phenyl-3-(2-(trifluoromethyl)pyridin-4-yl)-1H-pyrazolo[3,4-c]pyridazine]
